Molecules are shown by their SMILES. Where only a bound is given, the exact number is not on record here.

One assay has as its system MKN45 cells. Kind of assay: Proliferation of MKN45 cells. The format is cell-based. The note with it: Homo sapiens, MKN-45; Table 8. On the procedure:
MKN45 is a human poorly differentiated gastric cancer cell line with high MET expression. Cell proliferation experiments were performed according to literature methods (Zhang, D. et al. Bioorg. Med. Chem. 2013, 21, 6804; Riss, T. L.; Moravec, R. A.; Niles, A. L.; et al. Cell Viability Assays 2013 May 1 [Updated 2016 Jul. 1]. In: Sittampalam, G. S.; Grossman, A.; Brimacombe, K.; et al., editors. Assay Guidance Manual [Internet]. Bethesda (MD): Eli Lilly & Company and the National Center for Advancing Translational Sciences; 2004-. Available from: https://www.ncbi.nlm.nih.gov/books/NBK144065/).
Broadly, the IC50 is the concentration that inhibits the measured activity by half. Higher therefore signals weaker potency. In turn, `CSc1ccc(C(=O)Nc2ccc(Oc3cc4cnn(C)c4cc3-c3cn[nH]c3)c(F)c2)c(=O)n1-c1ccc(F)cc1` [Example 11, N-(3-fluoro-4-(1-methyl-6-(1H-pyrazol-4-yl)-1H-indazol-5-yloxy)phenyl)-1-(4-fluorophenyl)-6-methylthio-2-oxo-1,2-dihydropyidine-3-carboxamide] showed an IC50 of 12 nM.

As to `COc1ccc(C(=O)Nc2ccc(Oc3cc4cnn(C)c4cc3-c3cn[nH]c3)c(F)c2)c(=O)n1-c1ccc(F)cc1` [Example 12, N-(3-fluoro-4-(1-methyl-6-(1H-pyrazol-4-yl)-1H-indazol-5-yloxy)phenyl)-1-(4-fluorophenyl)-6-methoxy-2-oxo-1,2-dihydropyridine-3-carboxamide], the half-inhibitory concentration (IC50) is 4 nM.

Consider `CCOc1ccc(C(=O)Nc2ccc(Oc3cc4cnn(C)c4cc3-c3cn[nH]c3)c(F)c2)c(=O)n1-c1ccc(F)cc1` [Example 14, N-(3-fluoro-4-(1-methyl-6-(1H-pyrazol-4-yl)-1H-indazol-5-yloxy)phenyl)-1-(4-fluorophenyl)-6-ethoxy-2-oxo-12-dihydropyridine-3-carboxamide], for which the 50% inhibitory concentration (IC50) is 11 nM.

With `CC(C)Oc1ccc(C(=O)Nc2ccc(Oc3cc4cnn(C)c4cc3-c3cn[nH]c3)c(F)c2)c(=O)n1-c1ccc(F)cc1` [Example 16, N-(3-fluoro-4-(1-methyl-6-(1H-pyrazol-4-yl)-1H-indazol-5-yloxy)phenyl)-1-(4-fluorophenyl)-6-isopropoxy-2-oxo-1,2-dihydropyridine-3-carboxamide], half-maximal inhibition (IC50) was put at 9 nM.

Consider `O=C(Nc1cnn2ccc(N3CCC[C@@H]3c3cc(F)ccc3F)nc12)N1CC[C@H](O)C1` [LOXO-101, Larotrectinib, reference compound], for which the IC50 was over 10000 nM.

`Cc1ccc(C(=O)Nc2ccc(Oc3cc4cnn(C)c4cc3-c3cn[nH]c3)c(F)c2)c(=O)n1-c1ccc(F)cc1` [Merestinib, reference compound] showed an IC50 of 19 nM.

Another assay concerns Ba/F3 ETV6-NTRK2 cells. Kind of assay: Proliferation of Ba/F3 ETV6-NTRK2 cells (CellTiter-Glo). The format is cell-based. The note with it: Mus musculus, BaF3; Table 2; 72 hours. The text has this: Ba/F3 ETV6-NTRK2 cell is a stable transgenic cell line constructed by KYinno Biotechnology Co., Ltd. on mouse primary B cell Ba/F3 wherein NTRK2 is highly expressed and fused with ETV6 to form ETV6-NTRK2. • [Test method]: Promega's CellTiter-Glo® Luminescent Cell Viability Assay kit was used to evaluate the inhibitory activity of the compounds on the proliferation of Ba/F3 ETV6-NTRK2C cells. • [Instrument]: Spectramax M3 multifunctional microplate reader from Molecular Devices. • [Test materials]: Ba/F3 ETV6-NTRK2 cell line (constructed by KYinno Biotechnology Co., Ltd. (Beijing)), 96-well transparent flat-bottomed black-walled cell culture plate (Corning, cat #3603), RPMI-1640 media (GE, cat #SH30027.01), fetal bovine serum FBS (Thermo Fisher, cat #10099-141), CellTiter-Glo® Luminescent Cell Viability Assay kit (Promega, cat #G7572), PBS (Solarbio, cat #P1020), DMSO (Sigma, cat #D2650). • [Experimental procedure]: When resuscitating Ba/F3 ETV6-NTRK2 cells, the freezing tube was quickly shaken in a 37° C. water bath to melt within 1 minute. The thawed cell suspension was mixed uniformly with RPMI1640 medium containing 10% FBS, centrifuged at 1000 rpm for 5 minutes, and the supernatant discarded. 5 mL of complete medium (RPMI1640 medium with 10% FBS) was taken to resuspend the cell pellets, charged into a cell culture flask with a bottom area of 25 cm^2, and incubated in a cell incubator at 37° C., 95% humidity and 5% CO2. Cells were allowed to passage when the number of cells reached about 10^6 cells/mL. For cell passage, the old cell suspension was directly pipetted evenly, 1/5 of the cell suspension was kept, 4 mL of new complete medium was added, and after pipetting evenly, the cell flask was placed in the cell incubator for further culturing. Cell plating was performed when the number of cells reached about 10^6 cells/mL again. For cell plating, 1/5 of the cell suspension was kept for further culturing as in the cell passage method, and the remaining 4/5 of the cell suspension was placed in a 15 mL centrifuge tube, detected for cell viability by Trypan blue exclusion method to ensure that cell viability was above 90%. A cell suspension with a density of 5.56×10^4 viable cells/mL was prepared with complete medium, and 90 μL of such cell suspension was added to a 96-well cell culture plate to obtain a cell density of 5000 viable cells/mL in the cell culture plate. A control group containing no cells, no compound and only complete medium (i.e, culture medium control) and a control group containing no compound but containing cells (i.e, cell control) were set. The cell plate was placed in a cell incubator overnight. The 10 mM compound stock solution in DMSO was first serially diluted with DMSO at a dilution factor of 3.16 times, to obtain 9 concentrations, and the 10th concentration was set as DMSO control without compound. Then, PBS was used to dilute the DMSO solutions of compounds of different concentrations, at a dilution factor of 100 times, so that the DMSO concentration in the compound solution of each concentration was 1%. Finally, 10 μL of each of the above solutions was added to the corresponding cell culture plate, so that the initial compound concentration was 10 μM, with the remaining concentrations being successively diluted at a dilution factor of 3.16 times, and the DMSO content in the cell culture plate was 0.1%. The cell plate was placed in a cell incubator and cultured for 72 hours. For endpoint detection, the CellTiter-Glo reagent was melted, and the cell plate was moved to room temperature to equilibrate for 30 minutes, added with 100 μL of CellTiter-Glo for each well, and shaken on an orbital shaker for 5 minutes to fully lyse the cells. The plate was kept at room temperature for 20 minutes to stabilize the luminescence signal, and the luminescence value of each well was scanned with a multi-functional microplate reader at full wavelength. • [Test sample]
Take `Cn1ncc2cc(Oc3ccc(NC(=O)c4ccc(C(F)(F)F)n(-c5ccc(F)cc5)c4=O)cc3F)c(-c3cn[nH]c3)cc21` [Example 1, N-(3-fluoro-4-(1-methyl-6-(1H-pyrazol-4-yl)-1H-indazol-5-yloxy)phenyl)-1-(4-fluorophenyl)-6-trifluoromethyl-2-oxo-1,2-dihydmpyridine-3-carboxamide monomethanesulfonate]: the IC50 amounted to 428 nM.

For the molecule `Cn1ncc2cc(Oc3ccc(NC(=O)c4ccc(C5CC5)n(-c5ccc(F)cc5)c4=O)cc3F)c(-c3cn[nH]c3)cc21` [Example 2, N-(3-fluoro-4-(1-methyl-6-(1H-pyrazol-4-yl)-1H-indazol-5-yloxy)phenyl)-1-(4-fluorophenyl)-6-cyclopropyl-2-oxo-1,2-dihydmpyridine-3-carboxamide], the half-maximal inhibitory concentration (IC50) was 269 nM.

For `CCn1ncc2cc(Oc3ccc(NC(=O)c4ccc(C)n(-c5ccc(F)cc5)c4=O)cc3F)c(-c3cn[nH]c3)cc21` [Example 3, N-(3-fluoro-4-(1-ethyl-6-(1H-pyrazol-4-yl)-1H-indazol-5-yloxy)phenyl)-1-(4-fluorophenyl)-6-methyl-2-oxo-1,2-dihydmpyridine-3-carboxamide], the IC50 was found to be 341 nM.

Molecule `Cc1ccc(C(=O)Nc2ccc(Oc3cc4cnn(C(C)C)c4cc3-c3cn[nH]c3)c(F)c2)c(=O)n1-c1ccc(F)cc1` [Example 4, N-(3-fluoro-4-(1-isopropyl-6-(1H-pyrazol-4-yl)-1H-indazol-5-yloxy)phenyl)-1-(4-fluorophenyl)-6-methyl-2-oxo-1,2-dihydmpyridine-3-carboxamide] came in with a half-maximal inhibitory concentration (IC50) of 876 nM.

The molecule `CCc1ccc(C(=O)Nc2ccc(Oc3cc4cnn(C)c4cc3-c3cn[nH]c3)c(F)c2)c(=O)n1-c1ccc(F)cc1` [Example 5, N-(3-fluoro-4-(1-methyl-6-(1H-pyrazol-4-yl)-1H-indazol-5-yloxy)phenyl)-1-(4-fluorophenyl)-6-ethyl-2-oxo-1,2-dihydropyridine-3-carboxamide] yielded a half-maximal inhibitory concentration (IC50) of 128 nM.

`CC(C)c1ccc(C(=O)Nc2ccc(Oc3cc4cnn(C)c4cc3-c3cn[nH]c3)c(F)c2)c(=O)n1-c1ccc(F)cc1` [Example 6, N-(3-fluoro-4-(1-methyl-6-(1H-pyrazol-4-yl)-1H-indazol-5-yloxy)phenyl)-1-(4-fluorophenyl)-6-isopropyl-2-oxo-1,2-dihydropyridine-3-carboxamide] came in with an IC50 of 209 nM.

As for `O=C(Nc1cnn2ccc(N3CCC[C@@H]3c3cc(F)ccc3F)nc12)N1CC[C@H](O)C1` [LOXO-101, Larotrectinib, reference compound], the half-inhibitory concentration (IC50) was 69 nM.

Turning to `Cc1ccc(C(=O)Nc2ccc(Oc3cc4cnn(C)c4cc3-c3cn[nH]c3)c(F)c2)c(=O)n1-c1ccc(F)cc1` [Merestinib, reference compound], it took 211 nM to reach half-maximal inhibition (IC50).

(Values after US11952364B2, “TRK inhibitors useful as anticancer drugs” (TYLIGAND BIOSCIENCE (SHANGHAI) LIMITED, priority 2018, dated 2024).)
